# Experiments:
# SHIP enzyme = assay: In vitro SHIP enzyme assay (Assay 1), phosphate release by Malachite Green; assay type: biochemical; details: 10 ng enzyme/well, 100 μM inositol-1,3,4,5-tetrakisphosphate; note: key: a ‘+’ indicates a positive result for desired activity; a ‘−’ indicates a negative result for desired activity
# Method: (§1) Assay 1) In vitro testing in a SHIP enzyme assay. Test compounds were dissolved in a suitable solvent (e.g. EtOH, DMSO and others) and diluted into aqueous buffer (20 mM Tris HCl, pH 7.5 and 10 mM MgCl2). SHIP enzyme assays were performed in 96-well microtitre plates with 10 ng of enzyme/well in a total volume of 25 μL of 20 mM Tris HCl, pH 7.5 and 10 mM MgCl2. SHIP enzyme was incubated with test extracts (provided in solvent) or vehicle for 15 min at 23° C. before the addition of 100 μM inositol-1,3,4,5-tetrakisphosphate (Echelon Biosciences Inc, Salt Lake City, Utah). After 20 min at 37° C. and the amount of inorganic phosphate released assessed by the addition of Malachite Green reagent and absorbance measurement at 650 nm. Assay 2) Macrophage TNF-α production. J774.1a macrophage cells were treated with 10 μg/mL of test compound dissolved in solvent (e.g. cyclodextran) for 40 minutes prior to the addition of 100 ng/mL LPS. Culture supernatants were collected after 2 hr and 5 hr for TNF-α determination by ELISA. Assay 3) Macrophage TNF-α NO assay. J774.1a macrophage cells were treated with 10 μg/ml of test compound dissolved in solvent for 40 minutes prior to the addition of LPS. Culture supernatants were collected after 24 hr. for determination of NO concentration using the Griess reagent. Assay 4) Stimulation of mast cells by FcεRI crosslinking. Mast cells were pre-loaded overnight in BMMC medium lacking IL-3 with 0.1 μg/ml anti-DNP IgE (SPE-7, Sigma, Oakville, Ont). For calcium flux measurements, cells were incubated with 2 μM fura 2-acetoxymethyl ester (Molecular Probes, Eugene, Oreg.) in Tyrode's buffer at 23° C. for 45 min. Cells were then washed and incubated in the presence of the test compound 30 min prior to stimulation with the indicated concentration of DNP-human serum albumin (DNP-HSA). Calcium influx was monitored by spectrofluorometry as described previously. For analysis of intracellular signaling, cells were pre-loaded with anti-DNP IgE as above, pre-treated with the test compound for 30 min at 37° C. and stimulated with 20 ng/ml DNP-HSA for 5 min. Total cell lysates were then prepared and analyzed for phospho-PKB, phospho-p38^MAPK, phospho-MAPK, Grb-2 (Cell Signalling, Mississauga, Ont) and SHIP^6 by immunoblot analysis. Assay 5) Mouse acute cutaneous anaphylaxis model. 6-8 week old CD1 mice (University of British Columbia Animal Facility, Vancouver, BC) were sensitized to the hapten DNP by cutaneous application of 25 μL of 0.5% dinitrofluorobenzene (DNFB) (Sigma, Oakville, Ont) in acetone to the shaved abdomen of mice for two consecutive days. 24 hrs later, test substances (dissolved in 10 μL of 1:2 DMSO:MeOH) were painted on the right ear while the left ear received vehicle control. 30 min after drug application, DNFB was applied to both ears to induce mast cell degranulation. A 6 mm punch was taken from the ear and immediately frozen on dry ice for subsequent determination of neutrophil myeloperoxidase (MPO) activity. Assay 6) Mouse endotoxemia model. 6-8 week old C57B16 mice (VCHRI Mammalian Model of Human Disease Core Facility, Vancouver, BC) were orally administered the test compound 30 min prior to an IP injection of 2 mg/kg of LPS (E. Coli serotype 0111:B4, Sigma, Oakville, Ont). Blood was drawn 2 hrs later for determination of plasma TNFα by ELISA. Assay 7) In vitro Mulitple Myeloma (MM) assay. The ability of SHIP activators to reduce tumor cell survival was assessed in MM cell lines treated with the test compound. The lines OPM1, OPM2, MM.1S and RPMI 8226 were plated at a density of 1×10^5 cells/mL in 200 μL of medium with various concentrations of the test compound, and viable cell numbers were determined on day 3 and day 5 by trypan blue exclusion. The lines RPMI 8226 and U266 were plated at a density of 1×10^6 cells/mL in 250 μL of medium with various concentrations of the test compound. At day 4, the medium of each culture was replaced by fresh medium containing the same concentration of test compound. […]
# J774.1a macrophage cells [1] = assay: Macrophage TNF-α production (Assay 2); assay type: cell-based; details: 10 μg/mL test compound, 100 ng/mL LPS, supernatants after 2 hr and 5 hr; note: key: a ‘+’ indicates a positive result for desired activity; a ‘−’ indicates a negative result for desired activity
# Method: as §1
# J774.1a macrophage cells [2] = assay: Macrophage TNF-α NO assay (Assay 3), Griess reagent; assay type: cell-based; details: 10 μg/ml test compound, LPS, supernatants after 24 hr; note: key: a ‘+’ indicates a positive result for desired activity; a ‘−’ indicates a negative result for desired activity
# Method: as §1
# MM cell lines = assay: In vitro Multiple Myeloma (MM) assay (Assay 7); assay type: cell-based; details: viable cell number by trypan blue; [3H]-thymidine; note: key: a ‘+’ indicates a positive result for desired activity; a ‘−’ indicates a negative result for desired activity
# Method: as §1
# plasma TNFα = assay: Mouse endotoxemia model (Assay 6), plasma TNFα by ELISA; assay type: in vivo, mice; details: oral, 30 min prior to IP 2 mg/kg LPS, plasma TNFα 2 hrs later
# Method: as §1, with “6-8 week old C57B16 mice (VCHRI Mammalian Model of Human Disease Core Facility, Vancouver, BC) were orally administered the test compound 30 min prior to an IP injection of 2 mg/kg of LPS (E. Coli serotype 0111:B4, Sigma, Oakville, Ont). Blood was drawn 2 hrs later for determination of plasma TNFα by ELISA. Assay 7) In vitro Mulitple Myeloma (MM) assay.” left out, “exclusion.” for “exclusion. The lines RPMI 8226 and U266 were plated at a density of 1×10^6 cells/mL in 250 μL of medium with various concentrations of the test compound. At day 4, the medium of each culture was replaced by fresh medium containing the same concentration of test compound.”
# Mast cells = assay: Stimulation of mast cells by FcεRI crosslinking (Assay 4); assay type: cell-based; details: test compound 30 min prior to DNP-HSA
# Method: as §1, with “6-8 week old CD1 mice (University of British Columbia Animal Facility, Vancouver, BC) were sensitized to the hapten DNP by cutaneous application of 25 μL of 0.5% dinitrofluorobenzene (DNFB) (Sigma, Oakville, Ont) in acetone to the shaved abdomen of mice for two consecutive days. 24 hrs later, test substances (dissolved in 10 μL of 1:2 DMSO:MeOH) were painted on the right ear while the left ear received vehicle control. 30 min after drug application, DNFB was applied to both ears to induce mast cell degranulation. A 6 mm punch was taken from the ear and immediately frozen on dry ice for subsequent determination of neutrophil myeloperoxidase (MPO) activity. Assay 6) Mouse endotoxemia model. 6-8 week old C57B16 mice (VCHRI Mammalian Model of Human Disease Core Facility, Vancouver, BC) were orally administered the test compound 30 min prior to an IP injection of 2 mg/kg of LPS (E. Coli serotype 0111:B4, Sigma, Oakville, Ont). Blood was drawn 2 hrs later for determination of plasma TNFα by ELISA. Assay 7) In vitro Mulitple Myeloma (MM) assay.” left out, “exclusion.” for “exclusion. The lines RPMI 8226 and U266 were plated at a density of 1×10^6 cells/mL in 250 μL of medium with various concentrations of the test compound. At day 4, the medium of each culture was replaced by fresh medium containing the same concentration of test compound.”
Compound,"Assay 1: SHIP enzyme assay, desired activity (SHIP enzyme)","Assay 2: Macrophage TNF-α production, desired activity (J774.1a macrophage cells [1])","Assay 3: Macrophage NO assay, desired activity (J774.1a macrophage cells [2])","Assay 7: In vitro Multiple Myeloma (MM) assay, desired activity (MM cell lines)","Assay 6: Mouse endotoxemia model, desired activity (plasma TNFα)","Assay 4: Stimulation of mast cells by FcεRI crosslinking, desired activity (Mast cells)"
CCc1cc(O)c(O)c2c1[C@]1(C)CCC3C(C)(C)CCC[C@]3(C)[C@H]1C2 (stereo partly drawn) [Compound 18A],+,+,+,,,
Cc1cc(OP(=O)(O)O)cc2c1[C@]1(C)CCC3C(C)(C)CCC[C@]3(C)[C@H]1C2 (stereo partly drawn) [Compound 109],,−,+,+,,
COC(=O)c1cc(O)c(O)c2c1[C@]1(C)CCC3C(C)(C)CCC[C@]3(C)[C@H]1C2 (stereo partly drawn),+,,+,,,
Cc1cc(OC(=O)C(CC(=O)O)NC(=O)CCC(=O)O)cc2c1[C@]1(C)CCC3C(C)(C)CCC[C@]3(C)[C@H]1C2 (stereo partly drawn) [Compound 114],,+,+,,+,
COC(=O)c1cc(O)c(O)c2c1[C@]1(C)CCC3C(C)(C)CCC[C@]3(C)[C@@H]1C2 (stereo partly drawn),+,,+,,,
Cc1cc(OC(=O)C(N)CCCNC(=N)N)cc2c1[C@]1(C)CCC3C(C)(C)CCC[C@]3(C)[C@H]1C2 (stereo partly drawn) [Compound 105],,+,+,,,
COC(=O)c1cc(O)c(O)c2c1[C@@]1(C)CCC3C(C)(C)CCC[C@]3(C)[C@H]1C2 (stereo partly drawn),+,,+,,,
Cc1cc(O)cc2c1[C@]1(C)CCC3C(C)(C)CCC[C@]3(C)[C@@H]1C2 (stereo partly drawn) [Compound 124],,+,+,+,,+
Cc1cc(OC(=O)C(N)Cc2cnc[nH]2)cc2c1[C@]1(C)CCC3C(C)(C)CCC[C@]3(C)[C@H]1C2 (stereo partly drawn) [Compound 123],,+,+,,,
CC1(C)CCC[C@]2(C)[C@H]3Cc4cc(O)cc(O)c4[C@]3(C)CC[C@@H]12 [Compound 115],,,,+,,
Cc1cc2c(cc1O)C[C@@H]1[C@@]3(C)CCCC(C)(C)[C@@H]3CC[C@@]21C [Compound 101],,+,+,+,,
CC1(C)CCC[C@@]2(C)C1CC[C@@]1(C)c3c(C(=O)O)cc(O)c(O)c3C[C@@H]12 (stereo partly drawn),+,+,+,,,
COc1cc(O)cc2c1[C@]1(C)CC[C@H]3C(C)(C)CCC[C@]3(C)[C@H]1C2 [Compound 117],,+,+,+,,
CC(=O)Oc1cc(C)c2c(c1)C[C@H]1[C@@]2(C)CCC2C(C)(C)CCC[C@@]21C (stereo partly drawn) [Compound 102],,+,+,,,
COc1ccc2c(c1O)C[C@@H]1[C@@]3(C)CCCC(C)(C)[C@@H]3CC[C@@]21C [Compound 118],,−,+,+,,
Cc1cc(O)c(O)c2c1[C@@]1(C)CCC3C(C)(C)CCC[C@]3(C)[C@H]1C2 (stereo partly drawn),+,,,,,
COc1cc(C)c2c(c1O)C[C@@H]1[C@@]3(C)CCCC(C)(C)[C@@H]3CC[C@@]21C [Compound 129],,−,+,,,
Cc1cc(O)c2c(c1)C[C@@H]1[C@@]3(C)CCCC(C)(C)[C@@H]3CC[C@@]21C [Compound 122],,−,+,+,,
CC1(C)CCC[C@]2(C)[C@H]3Cc4cc(O)ccc4[C@]3(C)CC[C@@H]12 [Compound 121],,+,+,+,,
Cc1cc(O)cc2c1[C@@]1(C)CCC3C(C)(C)CCC[C@]3(C)[C@H]1C2 (stereo partly drawn) [Compound 125],,+,+,+,,+
